# Data reported in patent publication US20150315188A1, “COMPOUNDS AND METHODS FOR TREATMENT OF HYPERTENSION” (MEDIVATION TECHNOLOGIES, INC., priority 2012, published 2015).
# Where “and” joins values, the source holds several entries; their conditions need not be identical. Identical values can stand only once.
# Experiments:
# Parameters in all cases: purchased Milipore (Millipore)
# [1] = molecular target: T1, Human adrenergic α2B receptor (Homo sapiens, UniProt P18089); experiment: Radioligand binding, adrenergic α2B (Protocol Group B); conditions: Protocol Group B; for Percentage inhibition of ligand binding, Adrenergic α2B (10 nM): 0.01 µM; for Percentage inhibition of ligand binding, Adrenergic α2B (30 nM) / inhibition at 0.03 µM: 30 nM compound; for Percentage inhibition of ligand binding, Adrenergic α2B (30 nM): 0.03 µM; for inhibition at 0.03 µM: read-out: Percentage inhibition of ligand binding, Adrenergic α2B (30 nM)
# T1 sequence (P18089 1-450): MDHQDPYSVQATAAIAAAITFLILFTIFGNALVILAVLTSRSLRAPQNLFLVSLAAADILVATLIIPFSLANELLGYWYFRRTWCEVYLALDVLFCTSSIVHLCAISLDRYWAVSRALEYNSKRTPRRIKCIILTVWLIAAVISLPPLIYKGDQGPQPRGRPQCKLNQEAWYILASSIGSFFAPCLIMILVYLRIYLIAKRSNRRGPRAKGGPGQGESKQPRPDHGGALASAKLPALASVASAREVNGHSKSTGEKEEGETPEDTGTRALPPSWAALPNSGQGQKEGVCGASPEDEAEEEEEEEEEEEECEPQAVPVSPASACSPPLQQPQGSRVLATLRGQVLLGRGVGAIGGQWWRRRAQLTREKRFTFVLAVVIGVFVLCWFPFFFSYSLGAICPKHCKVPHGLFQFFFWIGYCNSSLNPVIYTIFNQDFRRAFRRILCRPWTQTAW
# Experimental: To evaluate the activity of compounds in radioligand binding assays, Human adrenergic α2B receptor obtained from recombinant cell membrane from Milipore. Binding experiments were carried out in Tris-HCl buffer (50 mM Tris-HCl buffer, pH 7.4, 5 mM Mgcl2, 1 mM Cacl2, 0.2% BSA) as recommended by Milipore. […] Non-specific binding was estimated in the presence of 10 μM Rauwolscine. […] Compounds were screened at various concentrations, using 1% DMSO as vehicle. Biochemical assay results are presented as the percent Inhibition of specific binding in Table B1b, or estimated Ki values in Table B1c.
# [2] = molecular target: T2, Human adrenergic α2A receptor (Homo sapiens, UniProt P08913); experiment: Radioligand binding, adrenergic α2A (Protocol Group B); conditions: Protocol Group B; for Percentage inhibition of ligand binding, Adrenergic α2A (0.1 μM): 0.1 μM compound; for Percentage inhibition of ligand binding, Adrenergic α2A (0.3 μM) / inhibition at 0.3 µM: 0.3 μM compound; for inhibition at 0.3 µM: read-out: Percentage inhibition of ligand binding, Adrenergic α2A (0.3 μM)
# T2 sequence (P08913 1-465): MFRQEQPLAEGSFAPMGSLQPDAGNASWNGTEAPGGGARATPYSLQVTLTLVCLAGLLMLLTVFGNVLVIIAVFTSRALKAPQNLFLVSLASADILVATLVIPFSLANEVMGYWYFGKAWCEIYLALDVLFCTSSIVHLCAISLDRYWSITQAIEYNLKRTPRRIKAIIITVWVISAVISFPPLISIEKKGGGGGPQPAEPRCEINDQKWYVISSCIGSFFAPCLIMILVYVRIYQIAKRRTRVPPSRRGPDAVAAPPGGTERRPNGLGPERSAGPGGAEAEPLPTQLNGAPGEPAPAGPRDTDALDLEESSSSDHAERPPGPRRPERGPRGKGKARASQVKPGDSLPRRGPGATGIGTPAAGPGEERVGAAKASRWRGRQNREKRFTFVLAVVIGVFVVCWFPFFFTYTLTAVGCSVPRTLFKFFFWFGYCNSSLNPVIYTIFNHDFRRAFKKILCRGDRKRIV
# Experimental: To evaluate the activity of compounds in radioligand binding assays, Human adrenergic α2A receptor obtained from recombinant cell membrane from Milipore. Binding experiments were carried out in Tris-HCl buffer (50 mM Tris-HCl buffer, pH 7.4, 5 mM Mgcl2, 1 mM Cacl2, 0.2% BSA) as recommended by Milipore. Compounds were incubated with 2 nM [^3H]MK-912 for 60 min at 25° C. Non-specific binding was estimated in the presence of 10 μM Rauwolscine. Receptor proteins were harvested on 0.33% PEI(poly-ethylenemine) soaked GFC filter mat, the specifically bound [^3H]MK-912 were counted to determine total binding. Compounds were screened at various concentrations, using 1% DMSO as vehicle. percent inhibition of specific binding was determined. Biochemical assay results are presented as the percent Inhibition of specific binding in Table B1b, or estimated Ki values in Table B1c.
# [3] = molecular target: T3, Human adrenergic α1B receptor (Homo sapiens, UniProt P35368); experiment: Radioligand binding, adrenergic α1B (Protocol Group B); conditions: Protocol Group B; for Percentage inhibition of ligand binding, Adrenergic α1B (0.1 μM) / inhibition at 0.1 µM: 0.1 μM compound; for Percentage inhibition of ligand binding, Adrenergic α1B (0.3 μM) / inhibition at 0.3 µM: 0.3 μM compound; for inhibition at 0.1 µM: read-out: Percentage inhibition of ligand binding, Adrenergic α1B (0.1 μM); for inhibition at 0.3 µM: read-out: Percentage inhibition of ligand binding, Adrenergic α1B (0.3 μM)
# T3 sequence (P35368 1-520): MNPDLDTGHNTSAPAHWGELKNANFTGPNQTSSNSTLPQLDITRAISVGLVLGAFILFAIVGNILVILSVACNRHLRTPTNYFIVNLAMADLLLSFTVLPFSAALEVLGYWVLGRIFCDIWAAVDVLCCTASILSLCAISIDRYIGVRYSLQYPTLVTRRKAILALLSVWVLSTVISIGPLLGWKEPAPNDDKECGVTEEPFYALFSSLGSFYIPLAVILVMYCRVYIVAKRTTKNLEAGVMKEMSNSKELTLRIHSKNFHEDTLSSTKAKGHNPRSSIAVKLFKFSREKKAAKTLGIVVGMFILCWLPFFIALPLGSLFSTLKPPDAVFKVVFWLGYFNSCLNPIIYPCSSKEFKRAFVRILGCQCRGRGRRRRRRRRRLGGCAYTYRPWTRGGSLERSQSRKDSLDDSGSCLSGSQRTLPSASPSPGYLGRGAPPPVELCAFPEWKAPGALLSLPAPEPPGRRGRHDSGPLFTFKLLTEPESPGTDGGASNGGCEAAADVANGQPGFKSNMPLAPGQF
# Experimental: To evaluate the activity of compounds in radioligand binding assays, Human adrenergic α1B receptor obtained from recombinant cell membrane from Milipore. Binding experiments were carried out in Tris-HCl buffer (50 mM Tris-HCl buffer, pH 7.4, 10 mM Mgcl2, 1 mM EDTA) as recommended by Milipore. Compounds were incubated with 0.3 nM [^3H]Prazosin for 60 min at 25° C. Non-specific binding was estimated in the presence of 10 μM prazosin. Receptor proteins were harvested on 0.33% PEI(poly-ethylenemine) soaked GFC filter mat, the specifically bound [^3H]Prazosin were counted to determine total binding. Compounds were screened at various concentrations, using 1% DMSO as vehicle. percent inhibition of specific binding was determined. Biochemical assay results are presented as the percent Inhibition of specific binding in Table B1b, or estimated Ki values in Table B1c.
SMILES,"Percentage inhibition of ligand binding, Adrenergic α2B (10 nM) ([1]; 10 nM compound)","Percentage inhibition of ligand binding, Adrenergic α2B (30 nM) [1]","Percentage inhibition of ligand binding, Adrenergic α2B (0.1 μM) ([1]; 0.1 μM compound)","Percentage inhibition of ligand binding, Adrenergic α2A (0.1 μM) [2]","Percentage inhibition of ligand binding, Adrenergic α2A (0.3 μM) [2]","Percentage inhibition of ligand binding, Adrenergic α1B (0.1 μM) [3]","Percentage inhibition of ligand binding, Adrenergic α1B (0.3 μM) [3]","inhibition at 0.01 µM ([1]; 10 nM compound, read-out: Percentage inhibition of ligand binding, Adrenergic α2B (10 nM))",inhibition at 0.03 µM [1],inhibition at 0.3 µM [2],inhibition at 0.1 µM [3],inhibition at 0.3 µM [3],"inhibition at 0.1 µM ([1]; 0.1 μM compound, read-out: Percentage inhibition of ligand binding, Adrenergic α2B (0.1 μM))","Ki ([1]; estimated Ki, read-out: Ki α2B)"
"Cc1ccc2c(c1)c1c(n2CC(OC(N)=O)c2ccncc2)CCN(C)C1 (single isomer, unassigned) [8a]",12%,21%,48%,20%,14%,18%,22%,–,–,–,–,–,–,–
"Cc1ccc2c(c1)c1c(n2CC(OC(N)=O)c2ccncc2)CCN(C)C1 (single isomer, unassigned) [8b]",–,–,26%,7%,–,–,–,13%,27%,10%,9%,14%,–,–
"Cc1ccc2c(c1)c1c(n2CC(C)(O)c2ccncc2)CCN2CCCC12 (single isomer, unassigned) [13c]",−1%,–,–,11%,–,9%,28%,–,30%,21%,–,–,74%,–
"Cc1ccc2c(c1)c1c(n2CC(C)(O)c2ccncc2)CCN2CCCC12 (single isomer, unassigned) [13d]",7%,27%,76%,3%,20%,−7%,9%,–,–,–,–,–,–,–
"Cc1ccc2c(c1)c1c(n2CC(O)c2ccncc2)CCN2CCCC12 (single isomer, unassigned) [Compound No. 178a]",–,–,–,–,–,73%,–,–,–,–,–,–,–,–
"Cc1ccc2c(c1)c1c(n2CC(O)c2ccncc2)CCN2CCCC12 (single isomer, unassigned) [Compound No. 178b]",–,–,–,55%,–,69%,–,–,–,–,–,–,–,–
"Cc1ccc2c(c1)c1c(n2CC(O)c2ccncc2)CCN2CCCC12 (single isomer, unassigned) [Compound No. 178c]",–,–,–,35%,–,94% and 96%,–,–,–,–,–,–,–,–
CC(O)(Cn1c2c(c3cc(F)ccc31)C1CCCN1CC2)c1cccnc1 (stereo not shown) [compound 51],–,–,–,–,–,–,–,–,–,–,–,–,–,1.58 nM

# More lines, now with the values ahead:
"Percentage inhibition of ligand binding, Adrenergic α2B (10 nM) ([1]; 10 nM compound)","Percentage inhibition of ligand binding, Adrenergic α2B (30 nM) [1]","Percentage inhibition of ligand binding, Adrenergic α2B (0.1 μM) ([1]; 0.1 μM compound)","Percentage inhibition of ligand binding, Adrenergic α2A (0.1 μM) [2]","Percentage inhibition of ligand binding, Adrenergic α2A (0.3 μM) [2]","Percentage inhibition of ligand binding, Adrenergic α1B (0.1 μM) [3]","Percentage inhibition of ligand binding, Adrenergic α1B (0.3 μM) [3]","inhibition at 0.01 µM ([1]; 10 nM compound, read-out: Percentage inhibition of ligand binding, Adrenergic α2B (10 nM))",inhibition at 0.03 µM [1],inhibition at 0.3 µM [2],inhibition at 0.1 µM [3],inhibition at 0.3 µM [3],"inhibition at 0.1 µM ([1]; 0.1 μM compound, read-out: Percentage inhibition of ligand binding, Adrenergic α2B (0.1 μM))","Ki ([1]; estimated Ki, read-out: Ki α2B)",SMILES
19%,48%,68%,14%,14%,–,–,–,–,–,17%,25%,–,–,"Cc1ccc2c(c1)c1c(n2CC(C)(O)c2cccnc2)CC(CO)N(C)C1 (single isomer, unassigned) [15a]"
6%,−11%,16%,1%,0%,12%,16%,–,–,–,–,–,–,–,"Cc1ccc2c(c1)c1c(n2CC(C)(O)c2cccnc2)CC(CO)N(C)C1 (single isomer, unassigned) [15b]"
−1%,−14%,1%,8%,–,16%,–,–,–,9%,–,9%,–,–,"Cc1ccc2c(c1)c1c(n2CC(C)(O)c2cccnc2)CCN(C)C1CO (single isomer, unassigned) [16a]"
4%,−11%,7%,−2%,10%,−3%,5%,–,–,–,–,–,–,–,"Cc1ccc2c(c1)c1c(n2CC(C)(O)c2cccnc2)CCN(C)C1CO (single isomer, unassigned) [16b]"
41%,58%,80%,−7%,38%,20%,55%,–,–,–,–,–,–,–,"OC(Cn1c2c(c3cc(F)ccc31)C1CCCN1CC2)c1ccncc1 (single isomer, unassigned) [18a]"
17%,13%,22%,7%,0%,5%,6%,–,–,–,–,–,–,–,"OC(Cn1c2c(c3cc(F)ccc31)C1CCCN1CC2)c1ccncc1 (single isomer, unassigned) [18c]"
